Assay results: PMC11882969 (Nature Communications, 2025)
Several values for one entry are separate records, joined by “and”; a condition that tells them apart may be missing. Identical values can stand only once.

Legend:
[1] = target: CB1 (rCB1) (Rattus norvegicus, UniProt P20272); experiment: Radioligand competition binding, [3H]-CP-55,940, rat brain membranes; settings: rCB1
[2] = target: T1, hCB2 (Homo sapiens, UniProt P34972); experiment: Cerep HTRF cAMP inhibition assay, hCB2 CHO-K1; format: cell-based; set-up: host or cells: HEK293SL cells, transient PEI transfection; settings: for functional response, concentration-response point (FigS7d): replicate columns;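 as to all read-outs here: compounds incubated 30 min at 37 °C with hCB2 CHO-K1 cells, cAMP detected by HTRF, HBSS as basal and reference agonist as stimulated control, run in triplicate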
Description: (§1) The hCB1/2 CHO-K1 cells (ATCC: CCL-61) are suspended in HBSS buffer (Invitrogen) complemented with 20 mM HEPES (pH 7.4), then distributed in microplates at a density of 5.103 cells/well in the presence of either of the following: HBSS (basal control), the reference agonist (stimulated control) or the test compounds. […] Following 30 min incubation at 37 °C, the cells are lysed, and the fluorescence acceptor (D2-labeled cAMP) and fluorescence donor (anti-cAMP antibody labeled with europium cryptate) are added. […] Each measurement was done in triplicate.

[3] = target: T2, hCB1 (Homo sapiens, UniProt P21554); experiment: DiscoverX PathHunter β-arrestin-2 recruitment; format: cell-based; settings: individual replicates;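 also: CHO-K1 cells expressing hCB1, agonist mode, compound exposure with 1% vehicle, chemiluminescence read-out of the β-arrestin-2 recruitment signal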
[4] = target: T1, hCB2; experiment: Tango β-arrestin-2 recruitment, HTLA cells, CB2R; format: cell-based; set-up: expressed in transfected cells; host or cells: HEK293 cells stably expressing human CB2R (Laboratory of Ken Mackie); settings: hCB2
[5] = target: T1, hCB2; experiment: TRUPATH BRET2 GoA dissociation, HEK293T; format: cell-based; set-up: expressed in transfected cells; host or cells: HEK293T cells (ATCC: CRL-3216), transient co-transfection; settings: Log[drug], replicate columns
[6] = target: T2, hCB1; experiment: Tango β-arrestin-2 recruitment, HTLA cells, CB1R; format: cell-based; set-up: expressed in transfected cells; host or cells: HTLA cells (gift of R. Axel), transient transfection; settings: Log[drug]
[7] = target: T2, hCB1; experiment: Cerep HTRF cAMP inhibition assay, hCB1 CHO-K1; format: cell-based; set-up: host or cells: HEK293SL cells, transient PEI transfection
Description: as §1

T2 sequence (P21554 whole entry): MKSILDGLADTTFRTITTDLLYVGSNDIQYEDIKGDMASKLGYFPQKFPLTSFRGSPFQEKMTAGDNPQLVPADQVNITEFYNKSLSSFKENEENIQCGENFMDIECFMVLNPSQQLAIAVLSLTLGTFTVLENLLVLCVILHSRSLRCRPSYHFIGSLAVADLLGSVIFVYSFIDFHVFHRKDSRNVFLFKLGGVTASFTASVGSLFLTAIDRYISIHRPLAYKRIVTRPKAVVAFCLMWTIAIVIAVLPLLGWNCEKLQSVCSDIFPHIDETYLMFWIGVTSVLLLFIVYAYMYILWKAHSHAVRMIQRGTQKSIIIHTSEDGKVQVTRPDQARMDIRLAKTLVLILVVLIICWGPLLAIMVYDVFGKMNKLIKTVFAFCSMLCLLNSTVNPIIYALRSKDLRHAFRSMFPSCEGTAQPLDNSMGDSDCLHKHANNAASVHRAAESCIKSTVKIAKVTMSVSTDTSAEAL
T1 sequence (P34972 whole entry): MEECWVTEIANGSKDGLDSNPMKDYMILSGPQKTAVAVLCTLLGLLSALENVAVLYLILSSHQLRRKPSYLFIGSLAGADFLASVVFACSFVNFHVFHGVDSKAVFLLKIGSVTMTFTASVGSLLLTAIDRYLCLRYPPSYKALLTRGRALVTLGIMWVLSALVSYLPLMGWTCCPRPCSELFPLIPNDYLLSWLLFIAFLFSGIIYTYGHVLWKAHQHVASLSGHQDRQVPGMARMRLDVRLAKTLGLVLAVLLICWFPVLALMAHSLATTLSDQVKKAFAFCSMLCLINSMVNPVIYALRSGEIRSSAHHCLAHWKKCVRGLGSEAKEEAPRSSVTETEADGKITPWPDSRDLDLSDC
Sequence of CB1 (rCB1) (P20272 whole entry): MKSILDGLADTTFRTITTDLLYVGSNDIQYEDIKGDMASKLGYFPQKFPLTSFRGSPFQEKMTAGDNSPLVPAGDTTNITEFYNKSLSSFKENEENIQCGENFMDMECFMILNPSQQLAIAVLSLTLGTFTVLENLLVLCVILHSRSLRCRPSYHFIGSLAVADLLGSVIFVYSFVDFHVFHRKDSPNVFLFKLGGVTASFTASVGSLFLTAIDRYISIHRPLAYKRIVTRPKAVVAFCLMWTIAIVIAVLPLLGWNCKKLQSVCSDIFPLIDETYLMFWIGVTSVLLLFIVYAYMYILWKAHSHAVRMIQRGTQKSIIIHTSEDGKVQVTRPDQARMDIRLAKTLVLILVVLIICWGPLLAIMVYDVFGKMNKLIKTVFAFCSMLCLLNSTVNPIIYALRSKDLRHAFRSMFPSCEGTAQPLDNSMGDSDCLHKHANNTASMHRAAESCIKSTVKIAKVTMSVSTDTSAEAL

Cc1cc(C(=O)N2CC3(CCC3)C2C2CCCO2)nn1-c1cccc(C(F)(F)F)c1 (centres unmarked) [‘3737]
pKi [95% CI] [1]: 6.76 [6.5 – 7.03] | Emax ([2]; CHO-K1, hCB2): 45% | functional response, concentration-response point (FigS7d) ([2]; Concentration [M] 1e-12): -30 and 18.5 and 4.6 | functional response, concentration-response point (FigS7d) ([2]; Concentration [M] 1e-11): 15.9 and 16.3 and 22.7 | functional response, concentration-response point (FigS7d) ([2]; Concentration [M] 1e-10): 3.3 and 8.5 and 15.6 | functional response, concentration-response point (FigS7d) ([2]; Concentration [M] 1e-9): 40.4 and -11.1 and 23.4 | functional response, concentration-response point (FigS7d) ([2]; Concentration [M] 1e-8): 41.2 and 37.3 and 34.7 | functional response, concentration-response point (FigS7d) ([2]; Concentration [M] 1e-7): 47.6 and 60.7 and 69.2 | functional response, concentration-response point (FigS7d) ([2]; Concentration [M] 1e-6): 52.3 and 67.9 and 43.7 | functional response, concentration-response point (FigS7d) ([2]; Concentration [M] 1e-5): 46.2 and 40.4 and 47.6 | Cerep cAMP pEC50 ([2]; hCB2): 8.4 [7.7 – 12.5] | EC50 ([2]; hCB2): 0.0043 µM | response at log[M] -5 (FigS4f) ([3]; log[M] = -5): 2.937 and 3.369 | response at log[M] -5.47712 (FigS4f) ([3]; log[M] = -5.47712): 2.132 and 1.959 | response at log[M] -5.95424 (FigS4f) ([3]; log[M] = -5.95424): 0.8089 and 2.3908 | response at log[M] -6.43136 (FigS4f) ([3]; log[M] = -6.43136): 0.2049 and 1.2691 | response at log[M] -6.90849 (FigS4f) ([3]; log[M] = -6.90849): -0.5141 and 0.32 | response at log[M] -7.38561 (FigS4f) ([3]; log[M] = -7.38561): 0.003595 and 0.06112 | response at log[M] -7.86273 (FigS4f) ([3]; log[M] = -7.86273): 0.32 and 0.4063 | response at log[M] -8.33985 (FigS4f) ([3]; log[M] = -8.33985): 0.003595 and -0.3703 | response at log[M] -8.81697 (FigS4f) ([3]; log[M] = -8.81697): 0.2049 and 0.8664 | response at log[M] -9.29409 (FigS4f) ([3]; log[M] = -9.29409): -0.4278 and -0.5141 | Emax ([4]; HTLA, read-out: Tango ß-arrestin recruitment Emax): 9% | Tango ß-arrestin recruitment pEC50 [4]: 5.8 [5.7 – 5.9] | EC50 ([4]; read-out: Tango ß-arrestin recruitment EC50): 1.5 µM | functional response, concentration-response point (FigS7e, normalized) ([5]; M = -5): 7.15 and 0.08499 and 7.219 and 7.788 and 7.891 and 6.738 and 8.045 and 7.095 and 12.8638 and 12.2484 and 11.5588 and 11.0027 | functional response, concentration-response point (FigS7e, normalized) ([5]; M = -5.52): 5.302 and 6.612 and 7.12 and 7.029 and 6.875 and 5.885 and 5.894 and 6.474 and 7.41 and 9.531 and 8.971 and 8.263 | functional response, concentration-response point (FigS7e, normalized) ([5]; M = -6): 1.28 and 2.3503 and 2.331 and 3.337 and 2.385 and 1.616 and 1.676 and 1.052 and 3.161 and 3.087 and 4.085 and 2.086 | functional response, concentration-response point (FigS7e, normalized) ([5]; M = -6.52): 0.8173 and 0.5745 and 0.009098 and 0.9653 and 0.9374 and 0.7056 and 0.8258 and 0.7943 and 1.033 and 1.163 and 0.8851 and 1.056 | functional response, concentration-response point (FigS7e, normalized) ([5]; M = -7): 0.2747 and 0.06981 and 0.08878 and 0.8059 and -0.06126 and 0.2392 and 0.2936 and 0.4538 and 0.7999 and 0.4069 and 0.5552 and 0.6998 | functional response, concentration-response point (FigS7e, normalized) ([5]; M = -7.52): 0.1912 and 0.08499 and -0.09335 and 0.658 and 0.6598 and 0.9202 and 0.07323 and 0.6226 and 0.2957 and 0.8814 and 0.5663 and 0.5329 | functional response, concentration-response point (FigS7e, normalized) ([5]; M = -8): 0.324 and -0.4159 and -0.002285 and 0.1419 and 0.1305 and 0.7285 and 0.8 and 0.368 and 0.355 and 0.3476 and 0.5886 and 0.8221 | functional response, concentration-response point (FigS7e, normalized) ([5]; M = -8.52): -0.4237 and 0.0337 and -0.52 and -0.4863 and 0.2451 and -0.1507 and 1.084 and 0.6009 and 0.6985 and 0.3222 and -0.007056 and 0.3034 | functional response, concentration-response point (FigS7e, normalized) ([5]; M = -12): 0.3611 and 0.2552 and -0.6451 and 0.02889 | response, replicate values of concentration-response curve (FigS7f) ([6]; M = -4.52): 16.1787 and -30.1888 and -21.8736 and -37.3037 and -30.7086 and -43.6201 and -17.4903 and -7.002 and -28.2206 and 69.1202 and 86.7632 | response, replicate values of concentration-response curve (FigS7f) ([6]; M = -5): 10.5 and 4.251 and -11.4922 and -24.0074 and 39.1171 and 4.908 and -25.6442 and 7.194 and 4.112 and 35.3652 and 54.7761 | response at Log[drug], M -5 (FigS4e) ([6]; M = -5, individual replicates): 1.604 and 1.6378 and -0.1263 and 3.554 and -1.645 and -3.332 and -3.586 and -3.254 and -1.133 and -2.551 and -0.4401 and -2.2823 | response, replicate values of concentration-response curve (FigS7f) ([6]; M = -5.52): -34.1436 and -19.4525 and -21.2651 and -33.8536 and -16.1649 and -20.5572 and -2.476 and -19.5818 and -27.1597 and -5.334 and 9.411 | response at Log[drug], M -5.52 (FigS4e) ([6]; M = -5.52, individual replicates): 3.364 and 3.2967 and 3.89 and 5.267 and -2.445 and -3.368 and -3.286 and -3.18 and -0.5298 and -0.4645 and -2.331 and -1.157 | response, replicate values of concentration-response curve (FigS7f) ([6]; M = -6): 47.6523 and 12.1859 and 4.34 and -19.6283 and -3.001 and -0.2146 and 2.4245 and 18.2472 and 13.6095 and 40.7237 and 38.7735 | response at Log[drug], M -6 (FigS4e) ([6]; M = -6, individual replicates): 5.688 and 6.311 and 5.608 and 6.012 and -1.436 and -3.213 and -2.355 and -0.1315 and -0.6439 and -0.4319 and -1.117 and -0.5542 | response, replicate values of concentration-response curve (FigS7f) ([6]; M = -6.52): 26.7755 and 17.066 and 0.4863 and -24.0472 and -30.3238 and -3.24 and 14.0743 and -8.114 and 32.4836 and -15.0304 and -19.0948 | response at Log[drug], M -6.52 (FigS4e) ([6]; M = -6.52, individual replicates): 5.756 and 5.2335 and 6.796 and 5.427 and -1.042 and -1.74 and -1.178 and 0.9023 and 2.299 and 1.818 and -0.3423 and 0.155 | response, replicate values of concentration-response curve (FigS7f) ([6]; M = -7): 34.9133 and -3.95 and -16.1188 and -35.3 and 25.4625 and -10.8968 and -21.6834 and 6.2943 and 0.9695 and -12.3146 and 7.534 | response at Log[drug], M -7 (FigS4e) ([6]; M = -7, individual replicates): 8.884 and 5.924 and 8.758 and 7.292 and -0.04536 and -0.9069 and -0.4556 and -0.1931 and 0.8804 and 2.804 and 1.011 and 0.1957 | response, replicate values of concentration-response curve (FigS7f) ([6]; M = -7.52): -5.053 and -15.3203 and -3.0249 and -6.279 and -50.5337 and -10.2997 and -15.5807 and -8.983 and -20.2588 and 4.854 and 34.2352 | response at Log[drug], M -7.52 (FigS4e) ([6]; M = -7.52, individual replicates): 9.415 and 8.198 and 9.343 and 6.627 and -1.362 and -1.444 and -1.617 and 0.25 and 3.66 and 1.117 and 0.375 and 3.994 | response at Log[drug], M -8 (FigS4e) ([6]; M = -8, individual replicates): 8.737 and 7.057 and 9.276 and 8.661 and -0.8249 and 2.133 and -0.7879 and -0.8084 and 1.019 and 1.329 and 1.361 and 1.467 | response at Log[drug], M -8.52 (FigS4e) ([6]; M = -8.52, individual replicates): 12.5705 and 14.1572 and 15.386 and 12.0363 and 0.2264 and -0.5023 and 0.2681 and 0.2421 and 3.757 and 10.0248 and 2.888 and 3.985 | response, replicate values of concentration-response curve (FigS7f) ([6]; M = -9): 8.713 | response at Log[drug], M -9 (FigS4e) ([6]; M = -9, individual replicates): 14.7823 and 12.9338 and 10.7167 and 15.0494 and -0.7053 and 1.382 and -0.9032 and 2.064 and 3.902 and 4.367 and 2.588 and 2.216 | response, replicate values of concentration-response curve (FigS7f) ([6]; M = -9.52): -15.5865 and 2.109 and -19.0089 and -14.201 and 8.65 and -30.6423 and 15.2767 and -7.75 and 4.87 and -25.5104 and 1.592 | response at Log[drug], M -9.52 (FigS4e) ([6]; M = -9.52, individual replicates): 13.1261 and 12.6453 and 12.7896 and 11.1868 and 3.428 and 1.32 and 2.251 and 2.397 and 2.423 and 1.937 and 2.288 and 2.144 | response, replicate values of concentration-response curve (FigS7f) ([6]; M = -10): -11.9485 and -4.635 and -5.484 and 10.0562 and 9.379 and -4.05 and 21.9756 and 8.952 and 10.1035 and -36.3186 and 8.518 | response at Log[drug], M -10 (FigS4e) ([6]; M = -10, individual replicates): 11.8653 and 11.8119 and 13.3986 and 14.0664 and 1.366 and 1.523 and 1.018 and -1.502 and 5.629 and 3.467 and 5.091 and 7.656 | response at Log[drug], M -10.52 (FigS4e) ([6]; M = -10.52, individual replicates): 14.5419 and 16.8873 and 18.068 and 18.8961 and 0.7314 and -0.5544 and 7.931 and 2.309 and 2.226 and 3.798 and 2.154 and 1.523 | response at Log[drug], M -11 (FigS4e) ([6]; M = -11, individual replicates): 12.4743 and 12.4476 and 8.323 and 8.772 and 2.428 and 1.528 and 2.267 and 2.496 and 5.774 and 4.76 and 2.712 and 3.85 | response at Log[drug], M -11.52 (FigS4e) ([6]; M = -11.52, individual replicates): 6.5336 and 8.19 and 7.298 and 6.6351 and 3.735 and 0.95 and 2.715 and 0.09109 and 2.743 and 1.926 and 0.799 and -0.6593 | response at Log[drug], M -12 (FigS4e) ([6]; M = -12, individual replicates): -0.6945 and 1.426 and -1.629 and 0.8975 and 0.8147 and 0.1796 and -0.8095 and -0.1848 and 0.03361 and 0.3025 and -0.05947 and -0.2767 | Emax ([7]; CHO-K1): 99% | Cerep cAMP pEC50 ([7]; hCB1): 6.5 [6.0 – 6.8] | EC50 ([7]; hCB1): 0.326 µM
